Source: the Deep4Chem optical property database
“And” between values parts separate entries of the source, which are not always exact repeats. Identical values can stand only once.

Assay: solvent given as SMILES

## Cc1ccccc1-c1c2ccc(=[N+]3CCOCC3)cc-2oc2cc(N3CCCCC3)ccc12
In CCO
  absorption maximum: 560 nm
In ClCCl
  absorption maximum: 559 nm

## COc1cc(OC)cc(C2=[O+][B-](F)(F)OC(c3ccc4ccccc4c3)=C2)c1
In ClCCl
  absorption maximum: 402 nm

## c1ccc([B-]2(c3ccccc3)Oc3ccc4ccccc4c3-c3c4ccccc4cn[n+]32)cc1
In Cc1ccccc1
  absorption maximum: 436 nm

## Cc1ccc(N(c2ccc(C)cc2)c2ccc(-c3ccc(C=C(C#N)C#N)o3)cc2)cc1
In ClC(Cl)Cl
  absorption maximum: 521 nm

## c1ccc2c(c1)c1ccccc1n2-c1ccc(-c2cc3ccc(-c4ccc5cc(-c6ccc(-n7c8ccccc8c8ccccc87)cc6)oc5c4)cc3o2)cc1
In Cc1ccccc1
  absorption maximum: 365 nm
In c1ccc2c(c1)c1ccccc1n2-c1ccc(-c2ccc(-n3c4ccccc4c4ccccc43)cc2)cc1
  absorption maximum: 376 nm

## O=C1c2ccccc2C2=Cc3cccc[n+]3[B-](F)(F)N12
In CCO
  absorption maximum: 391 nm
In Cc1ccccc1
  absorption maximum: 399 nm
In ClCCl
  absorption maximum: 396 nm and 385 nm

## C1=Cc2nc1c(-c1ccccc1)c1ccc([nH]1)c(-c1ccccc1)c1cc(c(-c3ccccc3)c3ccc([nH]3)c2-c2ccccc2)N=C1
In ClCCl
  absorption maximum: 726 nm

## CCCCN(CCCC)c1ccc(C#Cc2cc(C#Cc3ccc(C(F)(F)F)cc3)c(C#Cc3ccc(N(CCCC)CCCC)cc3)cc2C#Cc2ccc(C(F)(F)F)cc2)cc1
In ClCCl
  absorption maximum: 438 nm

## CC1(C)C(/C=C/C2=C(Oc3ccc(CCN=C=S)cc3F)C(=C/C=C3/N(CCCS(=O)(=O)[O-])c4ccccc4C3(C)C)/CCC2)=[N+](CCCS(=O)(=O)[O-])c2ccccc21
In CO
  absorption maximum: 768 nm

## Cc1cccc(C)c1
In C1CCCCC1
  absorption maximum: 259.74 nm

## N#Cc1ccc2c(c1)C1(c3cc(C#N)ccc3-2)c2ccccc2N(c2ccccc2)c2ccccc21
In Cc1ccccc1
  absorption maximum: 330.33 nm

## CCCCc1ccc(-n2c3c(c4c2c2c(n4-c4ccc(CCCC)cc4)-c4cc(F)ccc4NB2c2ccccc2)B(c2ccccc2)Nc2ccc(F)cc2-3)cc1
In Cc1ccccc1
  absorption maximum: 395 nm

## CCCCn1c2ccccc2c2ccc3c4cc(-c5ccc6ccccc6c5)ccc4n(CCCC)c3c21
In ClC(Cl)Cl
  absorption maximum: 332 nm

## O=Cc1nc2ccc(C#Cc3ccc(N(c4ccccc4)c4ccccc4)cc3)cc2s1
In Cc1ccccc1
  absorption maximum: 412 nm

## COc1cccc(-n2c(-c3ccc(F)cc3)nc(C)c2C)c1
In CCCCCC
  absorption maximum: 284 nm
In CCCCO
  absorption maximum: 289 nm
In CCO
  absorption maximum: 290 nm
In CCOC(C)=O
  absorption maximum: 288 nm
In ClCCl
  absorption maximum: 284 nm

## CCCCN1C(=O)C2=C(c3ccc(-c4ccccc4)cc3)[N-]C(=O)C2=C1c1ccc(-c2ccccc2)cc1
In ClCCl
  absorption maximum: 585 nm

## CC/[NH+]=c1\cc2oc3cc(NCCC(=O)NCCCCC(NC(C)=O)C(=O)OC)c4ccccc4c3nc-2cc1C (stereo unspecified)
In CCO
  absorption maximum: 590 nm
In O
  absorption maximum: 590 nm

## COCCOCCOCCNc1cc2c3c(c(NCCOCCOCCOC)cc4c3c1C(=O)N(CCOCCOCCOC)C4=O)C(=O)N(CCOCCOCCOC)C2=O
In CO
  absorption maximum: 605 nm
In ClC(Cl)Cl
  absorption maximum: 610 nm
In O
  absorption maximum: 623 nm

## CCN(CC)c1cc2sc3cc(N(CC)CC)c(F)cc3c(=O)c2cc1F
In CCO
  absorption maximum: 393 nm

## COc1ccc(-c2nc3ccccc3oc2=O)cc1
In c1ccccc1
  absorption maximum: 372 nm

## c1ccc(-c2cc(-c3ccc4ccc5cccc6ccc3c4c56)ccn2)nc1
In C1CCOC1
  absorption maximum: 344 nm
In CC#N
  absorption maximum: 342.99 nm
In CCC#N
  absorption maximum: 342.99 nm
In CCCC#N
  absorption maximum: 344 nm
In CCCCCC
  absorption maximum: 342 nm
In CCCO
  absorption maximum: 342.99 nm
In CCO
  absorption maximum: 342.99 nm
In CO
  absorption maximum: 342.99 nm
In Cc1ccccc1
  absorption maximum: 342.99 nm

## CC1=NN(c2cccc3ccccc23)[B-](F)(F)[n+]2ccccc21
In ClCCl
  absorption maximum: 432 nm

## CC(C)(C)c1cc2c3c(c1)-c1cccc4c1N(B3N1c3ccccc3Sc3cccc-2c31)c1ccccc1S4
In C1CCOC1
  absorption maximum: 381 nm

## CC1=CC(Br)=CN2C[n+]3cc(Br)cc(C)c3N=C12
In CO
  absorption maximum: 436 nm

## CC(C)[Si](C#Cc1c2ccccc2c(C#Cc2c3ccccc3c(C#Cc3c4ccccc4c(C#Cc4c5ccccc5c(C#Cc5c6ccccc6c(C#C[Si](C(C)C)(C(C)C)C(C)C)c6ccccc56)c5ccccc45)c4ccccc34)c3ccccc23)c2ccccc12)(C(C)C)C(C)C
In Cc1ccccc1
  absorption maximum: 585 nm

## CN(C)c1ccc(C2=CC3=C(c4ccc(C#N)cc4)[C@H]4c5ccccc5[C@]3(S2)c2ccccc24)cc1
In ClCCl
  absorption maximum: 436 nm

## O=C1C=C(Nc2ccccc2[N+](=O)[O-])C(=O)c2ccccc21
In CO
  absorption maximum: 450 nm

## COc1cc2c(cc1OC)C1=C[C@H](c3ccc(C)cc3)C3(C(C#N)=C(C#N)N1CC2)c1cc(Br)ccc1-c1ccc(Br)cc13
In ClCCl
  absorption maximum: 315 nm

## CN1C(=CC2=C([O-])C(=CC3=[N+](C)c4ccccc4C3(C)C)C2=C(C#N)C#N)C(C)(C)c2ccccc21
In ClC(Cl)Cl
  absorption maximum: 684 nm

## N#Cc1cc2ccc(cc2)c2cccc3cccc(c4ccc(cc4)cc(C#N)c4ccc(cc4)c4cccc5cccc(c6ccc1cc6)c54)c32
In Cc1ccccc1
  absorption maximum: 350 nm

## CC(C)[Si](C#Cc1c2cc3ccccc3cc2c(C#C[Si](C(C)C)(C(C)C)C(C)C)c2nc3ccccc3nc12)(C(C)C)C(C)C
In CCCCCC
  absorption maximum: 693 nm
In ClCCl
  absorption maximum: 697 nm

## c1ccc(-c2nc(-c3ccccc3)nc(-c3ccc(-n4c5ccccc5c5cc6c7ccccc7n7c8ccccc8c(c54)c67)cc3)n2)cc1
In Cc1ccccc1
  absorption maximum: 383 nm

## c1ccc2c(c1)-c1ccccc1C21c2ccccc2-c2ncccc21
In CC1CCCO1
  absorption maximum: 314 nm

## C[Si]1(C)c2ccccc2-c2ccccc21
In ClCCl
  absorption maximum: 336 nm

## C#CCOc1ccc(/C=C/C2=[N+]3C(=C(c4ccc(N(CC)CC)cc4)c4c(C)cc(/C=C/c5ccc(OCC(=O)OC)cc5)n4[B-]3(F)F)C(C)=C2)cc1
In CO
  absorption maximum: 640 nm

## Cc1ccc(C)n1-c1cccc(C#N)c1
In ClCCl
  absorption maximum: 259 nm

## CCCN1c2ccccc2Sc2cc(/C=C\c3cc(=O)oc4ccc(C)cc34)ccc21
In ClC(Cl)Cl
  absorption maximum: 423 nm

## CCCCCCCCCCn1c(-c2cc(-c3nc4ccccc4n3CCCCCCCCCC)cc(-c3nc4ccccc4n3CCCCCCCCCC)c2)nc2ccccc21
In ClCCl
  absorption maximum: 299.5 nm

## N#Cc1c(-c2ccc(N(c3ccccc3)c3ccccc3)cc2)c(C#N)c(-c2ccc(N(c3ccccc3)c3ccccc3)cc2)c(C#N)c1-c1ccc(N(c2ccccc2)c2ccccc2)cc1
In O=P(c1ccccc1)(c1ccccc1)c1ccccc1Oc1ccccc1P(=O)(c1ccccc1)c1ccccc1
  absorption maximum: 420 nm

## COc1cc(OC)c2c(c1)C(=O)c1ccc(OC)cc1-2
In C1CCCCC1
  absorption maximum: 422 nm
In CC#N
  absorption maximum: 441 nm
In CCO
  absorption maximum: 442 nm

## CCCCN(CCCC)c1ccc(C#Cc2cc(C#Cc3c(F)c(F)c(F)c(F)c3F)c(C#Cc3ccc(N(CCCC)CCCC)cc3)cc2C#Cc2c(F)c(F)c(F)c(F)c2F)cc1
In ClCCl
  absorption maximum: 462 nm

## COc1cc(/C=C/C(=O)O)ccc1O
In O
  absorption maximum: 287 nm

## CCN(CC)c1ccc2cc(-c3ccc(-c4c5ccccc5c(-c5ccc(-c6cc7ccc(N(CC)CC)cc7oc6=O)cc5)c5ccccc45)cc3)c(=O)oc2c1
In ClC(Cl)Cl
  absorption maximum: 412 nm

## CNc1ccc2nc3cc(Cl)c(Cl)cc3nc2c1
In CCO
  absorption maximum: 490 nm

## COc1ccc2c(c1)CCc1c(-c3ccccc3)c3n(c1-2)[B-](F)(F)[N+]1=C2C=NC=CN2[B-](F)(F)[N+]1=C3
In ClCCl
  absorption maximum: 546 nm

## Cc1csc2[n+]1[B-](F)(F)OC(c1ccc(N(C)C)cc1)=N2
In C1CCOC1
  absorption maximum: 405 nm
In CC#N
  absorption maximum: 403 nm
In Cc1ccccc1
  absorption maximum: 407 nm
In ClCCl
  absorption maximum: 406 nm

## CC1=[N+]2C(=C(c3ccc(C(=O)c4ccccc4)cc3)c3ccc(C)n3[B-]2(F)F)C=C1c1cc2n(c1)[B-](F)(F)[N+]1=CC=CC1=C2c1c(C)cc(C)cc1C
In C1CCCCC1
  absorption maximum: 599 nm
In CCOC(C)=O
  absorption maximum: 601.5 nm

## Cc1cc(C)c(B(c2cc(-c3ccc(N(C)C)cc3)sc2-c2sc(-c3ccc(N(C)C)cc3)cc2P(=O)(c2ccccc2)c2ccccc2)c2c(C)cc(C)cc2C)c(C)c1
In CO
  absorption maximum: 435 nm

## CC1(C)c2ccccc2N(c2ccc(-c3nc([C@]45CC6CC(C[C@@H](C6)C4)C5)nc([C@]45C[C@H]6C[C@@H](C[C@H](C6)C4)C5)n3)cc2)c2ccccc21
In Cc1ccccc1
  absorption maximum: 367.8 nm

## C[Si]1(C)c2cc(-c3ccccc3)ccc2C=Cc2ccc(-c3ccccc3)cc21
In ClCCl
  absorption maximum: 379 nm

## CCC(C)(C)c1ccc2c(c1)C(CCOC)(CCOC)c1cc(-c3ccc(-c4ccc5c(c4)C(CCOC)(CCOC)c4cc(C(C)(C)CC)ccc4-5)cc3)ccc1-2
In C1CCCCC1
  absorption maximum: 332 nm

## N#Cc1c(N2CCCCC2)cc(-c2ccc3ccccc3c2)c2c1C(=O)c1ccccc1-2
In C1CCOC1
  absorption maximum: 346 nm

## O=S(=O)(c1ccc(N(c2ccccc2)c2ccccc2)cc1)c1ccc(S(=O)(=O)c2ccc(N(c3ccccc3)c3ccccc3)cc2)cc1
In Cc1ccccc1
  absorption maximum: 354 nm

## Cc1ccc2nc3cc4c(cc3c(-c3ccccc3)c2c1)[Si](C)(C)O[Si](C)(C)O[Si]4(C)C
In ClCCl
  absorption maximum: 371 nm

## CCN(CC)c1ccc2cc(/C=C/C(=O)/C=C(O)/C=C/c3cc4ccc(N(CC)CC)cc4oc3=O)c(=O)oc2c1
In C1CCOC1
  absorption maximum: 518 nm
In C1COCCO1
  absorption maximum: 514 nm
In CC#N
  absorption maximum: 521 nm
In CC(C)=O
  absorption maximum: 519 nm
In CCOC(C)=O
  absorption maximum: 514 nm
In CN(C)C=O
  absorption maximum: 527 nm
In CS(C)=O
  absorption maximum: 540 nm
In Cc1ccccc1
  absorption maximum: 518 nm
In ClC(Cl)Cl
  absorption maximum: 520 nm
In ClCCl
  absorption maximum: 523 nm

## Cn1c(=O)c(/N=N/c2ccc(S(=O)(=O)O)c3ccccc23)c(O)c2ccccc21
In C1CCOC1
  absorption maximum: 467 nm
In CC(C)=O
  absorption maximum: 465 nm
In CCOC(C)=O
  absorption maximum: 464 nm
In CO
  absorption maximum: 468 nm
In CS(C)=O
  absorption maximum: 470 nm
In Cc1ccccc1
  absorption maximum: 469 nm
In ClCCl
  absorption maximum: 467 nm
In O
  absorption maximum: 456 nm

## CC(=O)c1c(N[C@@H](Cc2ccccc2)C(=O)O)c2ccc(N(C)C)cc2oc1=O
In ClCCl
  absorption maximum: 374 nm

## CCCCCCC(CCCCCC)N1C(=O)c2cccc3c(-c4ccc(OC)cc4)ccc(c23)C1=O
In CCCCCC
  absorption maximum: 354.2 nm
In CCCCCCCCCCCCCC
  absorption maximum: 356.4 nm
In CCCCCCCCCCCO
  absorption maximum: 365.6 nm
In CCCCO
  absorption maximum: 366.2 nm
In CN(C)C=O
  absorption maximum: 368 nm
In Cc1ccccc1
  absorption maximum: 364.2 nm
In ClC(Cl)Cl
  absorption maximum: 364.8 nm
